Data published in US20090042993A1, “IDENTIFICATION OF NOVEL POST-TRANSLATIONAL PROTEIN MODIFICATIONS” (priority 2007, published 2009).

How the values were obtained:
BACE1 = BACE1 lysine acetylation (immunoprecipitation, anti-acetylated lysine blot, LC-MS/MS mapping) in CHO cells; assay type: cell-based, human
Description: Chinese Hamster Ovary (CHO) cells were grown in DMEM (Gibco BRL—Invitrogen, Carlsbad, Calif.) supplemented with 10% fetal bovine serum (FBS) and penicillin/streptomycin (Mediatech, Inc., Herndon, Va.) as described before (Puglielli et al., 2001, Nat. Cell Biol. 3: 905-912; Puglielli et al., 2003, J. Biol. Chem. 278: 19777-19783; Costantini et al., 2005, Biochem. J. 391: 59-67; Costantini et al., 2006, EMBO J. 25: 1997-2006). Cells were maintained in a humidified atmosphere with 5% CO2. For ceramide treatment, C6-ceramide (also simply called ceramide herein) was administered at the final concentration of 10 μM; treatment was started when cells were ˜30% confluent and carried out for 4 days, unless specified otherwise. Treatment with proteasome inhibitors MG-132 (5 μM) and lactacystin (10 μM) was done for 10 hours, as described earlier (Qing et al., 2004, FASEB J. 18: 1571-1573).
For the immunoprecipitation of BACE1, cell lysates were pre-cleared with BioMag Protein A (Polysciences, Inc., Warrington, Pa.); beads were used at the concentration of 15 μl of the slurry per sample and separated with a magnetic holder. BACE1 was then immunoprecipitated with anti-BACE1 antibodies overnight and recovered with BioMag Protein A as above. The immunoprecipitate-bead complexes were washed 3 times in PBS and boiled for 10 min in SDS sample buffer (Invitrogen) with β-mercaptoethanol. Beads were then separated and the samples were analyzed by reducing SDS-PAGE.
BACE1-myc was purified via affinity chromatography on a ProFound c-Myc-Tag IP/Co-IP kit (Pierce). Each BACE1 preparation was then precipitated by addition of 4 volumes of acetone, pelletted by centrifugation, washed, and vacuum-dried. […]
A portion of each purified digest, corresponding to 10 μg of pre-digested protein, was analyzed by μLC-MS/MS using a Micromass Q-TOF2 spectrometer to locate acetylation sites. […] Charge dependent collision energy profiles were empirically pre-determined. […]

AT-1 = AT-1 mRNA by real-time quantitative PCR in SH-SY5Y cells; assay type: cell-based, human; conditions: C6-cer 10 μM
Description: FIG. 15(A): SH-SY5Y cells were treated with ceramide (C6-cer; 10 μM) prior to real-time quantitative PCR. Treatment was performed as previously described (Costantini et al., 2007; Costantini et al., 2005; Puglielli et al., 2003). Results are expressed as percent of control (n=5)±S.D. of control (no treatment). Asterisk (*) indicates statistical significance. […] FIG. 15(B): a cDNA library (frontal cortex) of late-onset AD (n=5 different subjects) and age-matched controls (n=5 different subjects) was analyzed by quantitative real-time PCR. Results are expressed as percent of age-matched controls±S.D. Asterisk (*) indicates statistical significance.

SMILES: CCCCCCCCCCCCC/C=C/[C@@H](O)[C@H](CO)NC(=O)CCCCC [ceramide, C6-ceramide]
- acetylation of BACE1Ala in vivo (BACE1; CHO cells stably expressing BACE1Ala grown with ceramide): did not induce acetylation
- number of acetylated lysine residues of BACE1 (BACE1; MS/MS of tryptic digests, two residues acetylated prior to ceramide treatment): increased to seven
- BACE1 acetylation (BACE1; ceramide treatment of cells): stimulates BACE1 acetylation
- AT-1 mRNA level (AT-1): upregulated
